Laboratory results taken from PubChem BioAssay (NCI).
“And” between values parts separate entries of the source, which are not always exact repeats. Identical values can stand only once.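 Results reflect a 48-hour exposure of cells in 96-well plates to compound at five concentrations. GI50 is the concentration that inhibits growth by half. Definition used: TGI = concentration required for complete inhibition of growth.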

Assays:
Experiment in all cases: growth of human tumour cells (NCI), 48 h
CCRF-CEM leukemia = tested on: CCRF-CEM leukemia
DU-145 prostate = tested on: DU-145 prostate
HOP-62 NSCLC = tested on: HOP-62 NSCLC
IGROV1 ovarian = tested on: IGROV1 ovarian
KM12 colon = tested on: KM12 colon
A549 NSCLC = tested on: A549 NSCLC
CAKI-1 renal = tested on: CAKI-1 renal
HOP-92 NSCLC = tested on: HOP-92 NSCLC
HCC-2998 colon = tested on: HCC-2998 colon
RPMI-8226 leukemia = tested on: RPMI-8226 leukemia

Row | Structure (SMILES) | GI50 (CCRF-CEM leukemia) | TGI (CCRF-CEM leukemia) [µM] | GI50 (DU-145 prostate) [µM] | TGI (DU-145 prostate) [µM] | GI50 (HOP-62 NSCLC) | TGI (HOP-62 NSCLC) | GI50 (IGROV1 ovarian) | TGI (IGROV1 ovarian) | GI50 (KM12 colon) [µM] | TGI (KM12 colon) [µM] | GI50 (A549 NSCLC) [µM] | TGI (A549 NSCLC) | GI50 (CAKI-1 renal) [µM] | TGI (CAKI-1 renal) | GI50 (HOP-92 NSCLC) [µM] | TGI (HOP-92 NSCLC) | GI50 (HCC-2998 colon) [µM] | TGI (HCC-2998 colon) [µM] | GI50 (RPMI-8226 leukemia) | TGI (RPMI-8226 leukemia) [µM]
1 | O=C(Nc1ccc(/C=C/c2ccc(NC(=O)c3cc(S(=O)(=O)O)c4cccnc4c3O)cc2S(=O)(=O)O)c(S(=O)(=O)O)c1)c1cc(S(=O)(=O)O)c2cccnc2c1O | 3.15 µM | > 29.1 | 17.7 | > 50.7 | 10.9 µM | > 66.1 µM | 18.5 µM | > 60.2 µM | 42.8 | > 67.7 | 9.49 | > 56 µM | 34.3 | > 75.2 µM | 28.5 | 89.4 µM | 97.6 | > 100 | 27 µM | > 65.2
2 | COc1cc2c(cc1OC)C1Cc3cc(OC)c(OC)cc3C(C2)N1C | 27.4 µM and > 100 µM | > 100 | – | > 75 | – | > 100 µM | – | > 75 µM | – | > 100 | – | > 100 µM | – | > 100 µM | – | > 75 µM | – | > 100 | 17.1 µM and > 100 µM | > 100
3 | COc1ccc(-n2ccnc2-c2cc(OC)c(OC)c(OC)c2)cc1 | 2.99 µM | > 100 | 6.66 | > 100 | 3.59 µM | > 100 µM | 2.42 µM | > 100 µM | 4.59 | > 100 | 6.57 | > 100 µM | 1.28 | 7.69 µM | 20 | > 100 µM | 0.957 | 24.6 | 3.78 µM | 30.7
4 | COc1ccc(/C=C/C(=O)c2ccc(OC)c(OC)c2)cc1O | 3.51 µM | 23.9 | 2.34 | 5.64 | 3.61 µM | 14.5 µM | 7.03 µM | 39.9 µM | 3.57 | 13.3 | 2.99 | 15.1 µM | 18.1 | > 100 µM | 2.02 | 13.6 µM | 9.1 | 22.1 | 3.19 µM | 15.1
5 | COc1ccc(C2C(C)C(=O)C(C)C(c3ccc(OC)cc3)N2N=O)cc1 (centres undefined) | – | > 1000 | – | 637 | 24.8 µM and 23.9 µM | > 80 µM and 60.7 µM and 293 µM | > 90.8 µM and 138 µM | 391 µM and 656 µM | – | > 1000 | 409 | 750 µM and > 1000 µM | 50.1 | 750 µM and 577 µM | > 47.9 | > 80.9 µM and 190 µM and 149 µM | > 1000 | > 1000 | > 750 µM | > 1000
